Results taken from patent publication US11311576B2, “Methods of use for CAR T cells” (Seattle Children's Hospital, priority 2018, dated 2022).

Assays:
[1] = test system: MDA-MB-231 tumors; test: Dietary folate effect on antitumor activity and CRS toxicity, MDA-MB-231 tumors; assay type: in vivo, NSG mice
Experimental: To study the effect of high dietary folate (FIG. 63A, FIG. 63B, FIG. 63C, FIG. 63D), two sets of NSG mice were placed on either a FA-replete diet (4 mg/kg, Envigo, Indianapolis, Ind.) or a FA-deficient diet (TestDiet, St. Louis, Mo.) upon arrival. On day 0, both sets of the mice received ˜10 million of the same “clinical facsimile” CAR-T cells followed by no EC17 or EC17 SIW at 500 nmol/kg starting on day 3. On the first day of EC17 administration, MDA-MB-231 tumors size averaged around ˜549±184 mm^3 (280-918 mm3) in FA-replete mice, and ˜559±165 mm^3 (356-961 mm^3) in FA-deficient mice.
Previously, it was shown that administration of FA or a FA ligand helped reduce the severity of CRS in MDA-MB-231 tumor-bearing mice. To test the long-term effect of dietary folate, mice were maintained on defined diets for ˜73 days and used when their tumors reached ˜549±184 mm3 (280-918 mm^3) in FA-replete mice, and ˜559±165 mm^3 (356-961 mm^3) in FA-deficient mice (FIG. 63A, FIG. 63B, FIG. 63C, FIG. 63D).

[2] = EC17/E2-CAR T-cell therapy in naïve NSG mice without tumor; assay type: in vivo; conditions: 10 million E2 CAR-T cells, EC17 500 nmol/kg x2 doses
Experimental: EGFRt-sorted anti-FITC E2 scFv-CAR T cells were frozen in a T-cell freezing medium. Vials of frozen CAR-T cells were immediately stored at −80° C. The CAR-T cells were quickly thawed at 37° C., washed twice with PBS, and used for animal injection at 10 million viable EGFRt+E2 CAR-T cells (CD4/CD8 at ˜1:1) per animal. A small aliquot was taken on the day infusion for flow cytometric analysis of E2-CAR T-cell phenotypes.
Mouse blood samples were processed for plasma and stored at −20° C. until use. A human TH1 cytokine panel (Biolegend, Cat. No. 740009) and a human hematopoietic stem cell cytokine panel (Biolegend, Cat. No. 740610) was used to detect human cytokines in the mouse blood. […]
Whole blood cell analysis: Plasma was removed from predetermined volumes of whole EDTA treated blood and RBCs were lysed with RBC lysis solution. […] Determination of the concentration of CAR T cells in each blood sample was calculated according to Invitrogen's instructions. CAR T cells were identified as human CD3ε+ EGFRt+ events and easily distinguished and counted using the Kaluza™ flow cytometry software. The number of CAR T cells in the circulation of each infused mouse was then represented on the graphs as the total number of CAR T cells per 100 μL of whole blood analyzed. Statistical significance was determined by utilizing an unpaired, two-tailed, students t30 test with significance set at p<0.05. […]

[3] = FA-deficient diet, each subsequent EC17 dose
[4] = FA-replete mice, CAR-T cells plus EC17

With `NC1=NC2N=CC(CNc3ccc(C(=O)N[C@@H](CCC(=O)NCCNC(=S)Nc4ccc(-c5c6ccc(=O)cc-6oc6cc(O)ccc56)c(C(=O)O)c4)C(=O)O)cc3)=NC2C(=O)N1` (stereo partly drawn) [EC17, FA-(g)-ethylenediamine-FITC] as the molecule, how does the CRS grade [1, 3] read?
The CRS grade was 2-3.

And the body weight loss [1, 3]?
Its body weight loss is ≤ 11.4%.

What about the cures ([1]; FA-deficient mice, CAR-T cells plus EC17) of the same molecule?
The cures was 5/5.

What about the “symptoms of CRS” value ([1]; FA-replete diet, eight weekly EC17 doses of 500 nmol/kg) of the same molecule?
Its value is “did not show symptoms of CRS”.

And the complete responses [1, 4]?
Its complete responses is 2/5.

And the cures [1, 4]?
The cures was 2/5.

And the partial response [1, 4]?
Its partial response is 1/5.

What about the “CRS or body weight loss after first full dose” value ([1]; ~10 million clinical facsimile E2-CAR-T cells, EC17 500 nmol/kg, either diet) of the same molecule?
Its value is “did not cause any CRS or body weight loss”.

And the “IFN-g production, difference between tumor-free and MDA-MB-231 tumor-bearing mice” value [2]?
The value was 23 fold.
